Experimental data as given in patent US11311522B1 (Cavion, Inc., priority 2018, dated 2022).

Tests used:
in vivo = details: male, Beagle, dog, plasma, po, 20 mg/kg/day
[1] = test system: patients with essential tremor; assay: T-CALM substudy: iMotor digital spirography; assay type: in vivo, human; details: dominant hand
Excerpt: The application requires the patient to complete a cycle of evaluations measuring motor function.
For the Archimedes spiral item of iMotor, subjects are asked to draw a spiral using a digital stylus on a tablet-based application. Prompts instruct the subject to trace a dotted grey mid-line that begins at the start of the spiral without lifting the stylus off the screen. The test is not timed. Subjects are asked to complete the task twice—one with the right and one with the left hand.
Functional tremor frequency (in Hz) is calculated by the iMotor algorithm based on the number and timing of stylus crosses of the mid-line. The mean change from baseline to Day 15 and Day 28 was calculated for the dominant hand. Statistical significance was calculated by Mann-Whitney non-parametric t-test (two tailed) (FIG. 5 and Table 5).

[2] = Cardiovascular telemetry in conscious dogs, oral; details: dog
cardiovascular function = assay: Cardiovascular telemetry in conscious dogs, oral
[3] = test system: patients with schizophrenia; assay: PN004: efficacy in acutely psychotic patients with schizophrenia (PANSS); details: human, in vivo
Excerpt: The primary efficacy endpoint was the mean change from baseline in the Positive and Negative Syndrome Scale (PANSS) total score at Week 4; secondary efficacy endpoints included responder rates on the PANSS total score at Week 4 and the change from baseline in the Clinical Global Impressions—Severity of Illness Scale at Week 4. Safety was monitored by adverse events, laboratory evaluations, ECGs, Holter monitoring, vital signs, the Simpson-Angus Scale, the Barnes Akathisia Rating Scale, the Abnormal Involuntary Movement Scale, and the Columbia Suicide-Severity Rating scale (C-SSRS).

[4] = PN005: safety and tolerability; assay type: in vivo, human
Excerpt: The visual disturbances tended to cease with eye opening and to recur with eye closure and were generally not disturbing to the subjects. […] No serious adverse events were reported, and none of the subjects discontinued treatment because of an adverse event. […] 5.3.3.1.3.2 Other Safety Assessments No clinically significant trends in safety laboratory parameters or vital signs were observed. […] No changes of ≥60 msec from baseline occurred, and no subject has a QTc interval ≥500 msec. […] The most common adverse events were headache, vivid dreams, and visual and/or auditory disturbances or hallucinations (typically described as seeing geometric shapes, colors, lights, and/or movement and hearing tones like from a telephone or electronic music). […] Clinical safety was monitored throughout the study by adverse events, clinical laboratory tests, vital signs, ECGs, and ECG telemetry.

[5] = 90-day oral toxicology in rats; details: both, rat, in vivo
[6] = doses up to 20 μM
[7] = single dose 8 mg, N = 7, middle-aged and elderly female subjects, Study PN005

## CC(C)c1ccc(CC(=O)N[C@H](C)c2ccc(OCC(F)(F)F)cn2)cc1 [CX-8998]
In vivo
  AUC: 425 µM·h
[1]; Day 15 (8 mg BID)
  Change from baseline in functional tremor frequency by iMotor, mean: −2.66 Hz
[1]; Day 28 (10 mg BID)
  Change from baseline in functional tremor frequency by iMotor, mean: −2.41 Hz
[2]; in vivo
  NOAEL: 20 mg/kg
[2]; plasma, po, 20 mg/kg
  Cmax: ~30 µM
Cardiovascular function; 20 mg/kg oral
  Peak change in QT interval: -27 ms
  Peak change in heart rate: +28 beats/min
Cardiovascular function; 300 mg/kg oral
  Peak decrease in QT interval: -14 ms
  Peak increase in heart rate: +47 beats/min
Cardiovascular function; dog, in vivo
  NOEL: 2 mg/kg
[3]
  PANSS total score change at Week 4 and secondary endpoints vs placebo: No statistically significant differences
[4]; single 8 mg dose
  Tolerability: well tolerated
[4]; [7]
  Alanine aminotransferase increased: 1 (14.3) n (%)
  At least 1 adverse event: 6 (85.7) n (%)
  Dry mouth: 1 (14.3) n (%)
  Eye Disorders: 1 (14.3) n (%)
  Gastrointestinal Disorders: 3 (42.9) n (%)
  Hot flush: 1 (14.3) n (%)
  Hypoaesthesia oral: 1 (14.3) n (%)
  Inappropriate laughter: 2 (28.6) n (%)
  Infections and Infestations: 1 (14.3) n (%)
  Investigations: 1 (14.3) n (%)
  Irritability: 1 (14.3) n (%)
  Nausea: 1 (14.3) n (%)
  Nervousness: 1 (14.3) n (%)
  Psychiatric Disorders: 4 (57.1) n (%)
  Racing thoughts: 1 (14.3) n (%)
  Shingles: 1 (14.3) n (%)
  Vascular Disorders: 1 (14.3) n (%)
  Vision blurred: 1 (14.3) n (%)
  Vomiting: 1 (14.3) n (%)
[5]; Sprague-Dawley, po
  NOAEL at 90 days: 300 mg/kg/day
[5]; oral
  NOAEL at 90 days: 300 mg/kg/day
[6]
  Alkaline elution assay result: negative
